Results from patent US10047051B2, “Substituted pyridines and method of use” (AbbVie S.á{acute over (.)}r.l., priority 2015, dated 2018).
pEC50: −log10 of the molar value.

What was measured:
[1] = molecular target: T1, CFTR ΔF508 mutant (Homo sapiens, UniProt P13569, DEL508-508); assay: YFP-halide influx assay for the CFTR-ΔF508 mutation (CFBE41o- cells); assay type: cell-based; conditions: forskolin 10.67 μM; for pEC50: from (1−F/F0) vs concentration plot
T1 construct: expressed in transfected cells; host or cells: CFBE41o- cells, adenoviral transduction
T1 sequence (P13569 with tags, fused parts or gaps DEL508-508): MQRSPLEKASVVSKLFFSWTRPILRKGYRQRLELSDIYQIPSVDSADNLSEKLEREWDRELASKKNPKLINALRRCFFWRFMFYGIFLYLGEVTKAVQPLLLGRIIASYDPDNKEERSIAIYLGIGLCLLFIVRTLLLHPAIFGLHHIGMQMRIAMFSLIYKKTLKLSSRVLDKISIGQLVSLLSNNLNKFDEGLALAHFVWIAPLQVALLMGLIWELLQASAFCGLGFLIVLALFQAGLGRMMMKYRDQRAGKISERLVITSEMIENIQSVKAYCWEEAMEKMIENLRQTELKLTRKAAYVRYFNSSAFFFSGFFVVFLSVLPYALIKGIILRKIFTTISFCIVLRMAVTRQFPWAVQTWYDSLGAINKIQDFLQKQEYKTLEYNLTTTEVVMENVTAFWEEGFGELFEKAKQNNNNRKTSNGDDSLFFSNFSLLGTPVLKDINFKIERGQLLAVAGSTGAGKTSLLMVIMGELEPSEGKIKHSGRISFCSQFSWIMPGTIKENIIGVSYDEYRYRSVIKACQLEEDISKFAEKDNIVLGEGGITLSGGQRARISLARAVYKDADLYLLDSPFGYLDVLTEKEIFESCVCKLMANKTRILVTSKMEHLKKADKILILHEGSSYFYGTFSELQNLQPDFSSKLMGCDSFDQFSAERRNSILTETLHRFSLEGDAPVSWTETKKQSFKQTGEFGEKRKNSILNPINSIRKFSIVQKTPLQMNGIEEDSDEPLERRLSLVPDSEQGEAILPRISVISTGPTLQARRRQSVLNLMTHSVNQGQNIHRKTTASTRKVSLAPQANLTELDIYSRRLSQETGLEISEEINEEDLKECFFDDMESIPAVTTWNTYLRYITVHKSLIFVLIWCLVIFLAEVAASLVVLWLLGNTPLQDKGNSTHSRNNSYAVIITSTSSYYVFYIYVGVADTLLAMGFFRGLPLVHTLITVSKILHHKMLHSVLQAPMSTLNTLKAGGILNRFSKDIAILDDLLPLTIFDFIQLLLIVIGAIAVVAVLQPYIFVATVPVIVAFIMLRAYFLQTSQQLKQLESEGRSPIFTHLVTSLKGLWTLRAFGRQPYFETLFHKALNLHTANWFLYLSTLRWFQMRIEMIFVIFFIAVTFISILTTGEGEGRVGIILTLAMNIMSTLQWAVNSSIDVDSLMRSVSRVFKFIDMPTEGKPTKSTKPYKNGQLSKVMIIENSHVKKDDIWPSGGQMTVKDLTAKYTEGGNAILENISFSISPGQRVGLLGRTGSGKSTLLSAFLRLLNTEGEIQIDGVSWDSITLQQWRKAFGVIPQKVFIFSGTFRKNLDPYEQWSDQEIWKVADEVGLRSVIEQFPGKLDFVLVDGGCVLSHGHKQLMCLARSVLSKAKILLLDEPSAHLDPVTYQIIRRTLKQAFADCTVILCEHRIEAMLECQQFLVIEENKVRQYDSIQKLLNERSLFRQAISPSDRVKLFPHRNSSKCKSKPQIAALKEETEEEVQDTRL
Summary of the method: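 CFBE41o- cells transduced with adenovirus expressing CFTR ΔF508 and halide-sensitive YFP H148Q/I152L/F47L, then held 24 h at 27° C or with a CFTR modulator 24 h at 37° C. Iodide-induced quench recorded 2 min; EC50 from (1−F/F0) at 36 s versus concentration.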

[2] = molecular target: T2, CFTR G551D mutant (Homo sapiens, UniProt P13569, G551D); assay: YFP-halide influx assay for the CFTR-G551D mutation (HEK293 cells); assay type: cell-based; conditions: forskolin 10.67 μM
T2 construct: expressed in transfected cells; host or cells: HEK293 cells, reverse transfection with plasmids
T2 sequence (P13569 whole entry G551D): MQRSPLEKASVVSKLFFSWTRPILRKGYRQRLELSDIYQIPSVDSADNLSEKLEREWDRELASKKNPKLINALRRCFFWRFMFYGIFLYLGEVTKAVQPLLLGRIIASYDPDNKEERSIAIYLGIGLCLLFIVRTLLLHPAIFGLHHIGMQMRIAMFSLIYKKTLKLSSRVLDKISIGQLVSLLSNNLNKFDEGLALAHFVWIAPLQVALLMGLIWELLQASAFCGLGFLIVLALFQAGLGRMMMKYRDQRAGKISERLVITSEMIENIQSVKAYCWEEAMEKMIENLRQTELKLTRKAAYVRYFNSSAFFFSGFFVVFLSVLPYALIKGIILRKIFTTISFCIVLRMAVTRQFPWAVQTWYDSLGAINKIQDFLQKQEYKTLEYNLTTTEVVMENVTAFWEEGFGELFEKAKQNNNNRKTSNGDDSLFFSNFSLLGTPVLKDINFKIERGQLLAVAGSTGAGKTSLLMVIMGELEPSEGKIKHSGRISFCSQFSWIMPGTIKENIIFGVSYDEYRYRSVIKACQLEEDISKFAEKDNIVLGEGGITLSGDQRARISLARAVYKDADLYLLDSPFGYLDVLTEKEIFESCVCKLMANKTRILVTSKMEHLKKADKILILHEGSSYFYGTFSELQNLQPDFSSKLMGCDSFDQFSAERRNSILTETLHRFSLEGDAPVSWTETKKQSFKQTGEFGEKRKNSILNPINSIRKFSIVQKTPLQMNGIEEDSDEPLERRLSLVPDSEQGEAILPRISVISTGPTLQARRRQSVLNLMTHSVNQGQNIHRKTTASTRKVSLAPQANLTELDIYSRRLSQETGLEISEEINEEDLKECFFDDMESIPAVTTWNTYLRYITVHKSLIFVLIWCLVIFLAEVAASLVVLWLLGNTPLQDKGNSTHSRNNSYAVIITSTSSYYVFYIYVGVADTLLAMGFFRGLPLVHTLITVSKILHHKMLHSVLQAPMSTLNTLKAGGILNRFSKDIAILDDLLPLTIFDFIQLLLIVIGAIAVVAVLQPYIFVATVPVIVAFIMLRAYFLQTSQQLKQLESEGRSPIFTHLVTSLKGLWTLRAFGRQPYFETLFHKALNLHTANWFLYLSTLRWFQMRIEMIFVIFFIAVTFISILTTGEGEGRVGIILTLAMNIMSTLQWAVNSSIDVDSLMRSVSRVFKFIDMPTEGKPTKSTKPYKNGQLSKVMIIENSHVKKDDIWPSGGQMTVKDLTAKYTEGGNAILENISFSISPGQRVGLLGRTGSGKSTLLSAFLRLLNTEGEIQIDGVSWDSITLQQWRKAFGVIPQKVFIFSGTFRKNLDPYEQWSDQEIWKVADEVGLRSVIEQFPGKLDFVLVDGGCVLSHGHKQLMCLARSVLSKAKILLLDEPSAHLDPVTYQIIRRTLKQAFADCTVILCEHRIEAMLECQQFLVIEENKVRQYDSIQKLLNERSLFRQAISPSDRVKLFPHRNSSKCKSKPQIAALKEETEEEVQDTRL
Summary of the method: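 HEK293 cells reverse-transfected with CFTR G551D and halide-sensitive YFP (H148Q/I152L/F47L), expressed 24 h at 37 °C. YFP fluorescence quenching recorded for 7 s after I⁻ injection. Response = 1−F/F0; EC50 derived from 1−F/F0 vs compound concentration.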

SMILES	% Activation [1] [%]	pEC50 [1]	% Activation [2] [%]	pEC50 [2]
CC(C)OCCNC(=O)c1ncc(S(=O)(=O)c2ccc(C(F)(F)F)cc2)cc1N [Compound 192, 3-amino-N-[2-(propan-2-yloxy)ethyl]-5-{[4-(trifluoromethyl)phenyl]sulfonyl}pyridine-2-carboxamide]	101.5	7.41	58.4	6.06
Nc1cc(S(=O)(=O)N2CCCC(F)C2)cnc1C(=O)NCC(O)C(F)(F)F (stereo not shown) [Compound 194, 3-amino-5-[(3-fluoropiperidin-1-yl)sulfonyl]-N-(3,3,3-trifluoro-2-hydroxypropyl)pyridine-2-carboxamide]	95.7	7.49	62.3	5.75
Nc1cc(S(=O)(=O)N2CCC(F)CC2)cnc1C(=O)NCC(O)C(F)(F)F (stereo not shown) [Compound 195, 3-amino-5-[(4-fluoropiperidin-1-yl)sulfonyl]-N-(3,3,3-trifluoro-2-hydroxypropyl)pyridine-2-carboxamide]	98.7	7.58	61.8	5.90
COC1CCN(S(=O)(=O)c2cnc(C(=O)NCC(O)C(F)(F)F)c(N)c2)CC1 (stereo not shown) [Compound 196, 3-amino-5-[(4-methoxypiperidin-1-yl)sulfonyl]-N-(3,3,3-trifluoro-2-hydroxypropyl)pyridine-2-carboxamide]	105.4	7.59	65.4	5.74
CC(C)(C)C1CCN(S(=O)(=O)c2cnc(C(=O)NCC(O)C(F)(F)F)c(N)c2)CC1 (stereo not shown) [Compound 197, 3-amino-5-[(4-tert-butylpiperidin-1-yl)sulfonyl]-N-(3,3,3-trifluoro-2-hydroxypropyl)pyridine-2-carboxamide]	106.7	8.41	76.4	6.47
Nc1cc(S(=O)(=O)N2CCC(OC(F)(F)F)CC2)cnc1C(=O)NCC(O)C(F)(F)F (stereo not shown) [Compound 198, 3-amino-N-(3,3,3-trifluoro-2-hydroxypropyl)-5-{[4-(trifluoromethoxy)piperidin-1-yl]sulfonyl}pyridine-2-carboxamide]	107.0	8.11	75.2	6.12
CC1(C)CN(S(=O)(=O)c2cnc(C(=O)NCC(O)C(F)(F)F)c(N)c2)C1 (stereo not shown) [Compound 199, 3-amino-5-[(3,3-dimethylazetidin-1-yl)sulfonyl]-N-(3,3,3-trifluoro-2-hydroxypropyl)pyridine-2-carboxamide]	114.1	7.67	65.0	5.84
Nc1cc(S(=O)(=O)NC[C@H]2CCOC2)cnc1C(=O)NCC(O)C(F)(F)F (stereo partly drawn) [Compound 200, 3-amino-5-{[(3R)-tetrahydrofuran-3-ylmethyl]sulfamoyl}-N-(3,3,3-trifluoro-2-hydroxypropyl)pyridine-2-carboxamide]	116.7	7.37	59.5	5.63
Nc1cc(S(=O)(=O)c2ccc(C(F)(F)F)cc2)cnc1C(=O)NCC(O)COCC(F)(F)F (stereo not shown) [Compound 201, 3-amino-N-[2-hydroxy-3-(2,2,2-trifluoroethoxy)propyl]-5-{[4-(trifluoromethyl)phenyl]sulfonyl}pyridine-2-carboxamide]	104.0	7.83	59.8	6.28
COCCNC(=O)c1ncc(S(=O)(=O)c2ccc(C(F)(F)F)cc2)cc1N [Compound 202, 3-amino-N-(2-methoxyethyl)-5-{[4-(trifluoromethyl)phenyl]sulfonyl}pyridine-2-carboxamide]	97.6	7.34	45.1	5.80
